According to patent publication US9944654B2, “Nargenicin compounds and uses thereof as antibacterial agents” (priority 2014, dated 2018):
In brackets after ≈: the same amount, converted by molar mass. Where two headings read alike, the source gives them in different places.

Legend:
[1] = molecular target: T1, E. coli DnaE (DNA polymerase III α-subunit from Escherichia coli) (Escherichia coli, UniProt P10443); test: In vitro DnaE single enzyme assay (E. coli); type: biochemical
T1 construct: EcDnaE (E. coli DnaE residues 1-1160); 6xHis (N); made in house; host or cells: E. coli BL21(DE3)
Procedure: (§1) Plasmids encoding EcDnaE (E. coli DnaE residues 1-1160) and SaDnaE (S. aureus DnaE residues 1-1065) with 6×His N-terminal tags, were overexpressed in BL21(DE3) and BL21-AI cells (Invitrogen), respectively. Cells were grown in LB media to an OD ˜0.45 pelleted and then resuspended in Minimal Media, as described in Pryor et al. (1997, Protein Expr Purif. 10:309-19), and inducer (0.4 mM IPTG or 0.2% arabinose) for 21 hours at 18° C. at 220 rpm. Cells were then harvested, frozen for 20 minutes at −80° C. and thawed. Pellets were resuspended in 1× Talon buffer (50 mM Sodium Phosphate, 300 mM Sodium Chloride, pH 7.4) +10% glycerol +Roche PI's (-EDTA). Cells were lysed with two passes through a French press, then centrifuged for 45 minutes at 40,000 rpm (70Ti, Beckman). Supernatant was bound to 5 mL TALON resin (CLONTECH) for 1 hour at room temperature on Nutator. TALON resin was washed with 10 mM imidizole, and DnaE was eluted with 250 mM imidizole. Eluate was concentrated and run on a size exclusion column (SEC200, GE Healthcare) in the following buffer; 25 mM HEPES, 30 mM NaCl,1 mM CaCl2, 5% glycerol, pH 7.9. Pool SEC fractions based on SDS-PAGE run, aliquot, freeze, and store at -80° C.
(§2) DnaE was diluted in 50 mM potassium phosphate pH 7.5, 5 mM BME, 10% glycerol and 200 mM NaCl prior to use.
(§3) The purpose of the DnaE single enzyme assay is to determine the ability of compounds to inhibit the DNA polymerase III α-subunit homolog from Staphylococcus aureus or the α-subunit from Escherichia coli without the other components of the replication machinery. The DnaE single enzyme assay was a modified version of the method, Standard Pol III Assay Using Activated DNA and Four dNTPs, described by Butler et al., 2008, Methods in Molecular Medicine: New Antibiotic Targets 142:25-36. Briefly, in 96-well plates, enzyme was added to a mixture containing 30 mM Tris-HCl pH 7.5, 20% glycerol, 4 mM DTT, 10 mM Mg acetate, 0.025 mM dATP, 0.025 mM dGTP, 0.025 mM dc:TP, 0.011 mM ^3H-dTTP 1 mCi/ml (Perkin-Elmer), and 0.298 mg/mL Dnase I (Sigma) treated “activated” Calf Thymus DNA (Worthington Biochemical). The assay was set up so that 5 μl of compound was distributed to the plates, 90 μl of reaction mix was added to the compound, and 5 μl of enzyme was added to start the reaction. Assays were initiated by the addition of 0.8 μg/ml E. coli or 0.05 μg/ml S. aureus DnaE, incubated for 30 min at 30° C., and terminated by the addition of a 20% trichloroacetic acid and 0.2% sodium pyrophosphate solution. Precipitated labeled DNA was collected on Glass-fiber Filtermat A using Micro96 Harvester, and the filters were washed, dried, and counted in a Microbeta Trilux (Perkin Elmer). Serial dilutions of compounds (in DMSO) were added to the plates before enzyme addition.

[2] = molecular target: T2, S. aureus DnaE (DNA polymerase III α-subunit homolog from Staphylococcus aureus) (Staphylococcus aureus, UniProt Q5HF71); test: biochemical; type: biochemical
T2 construct: SaDnaE (S. aureus DnaE residues 1-1065); 6xHis (N); made in house; host or cells: E. coli BL21-AI
T2 sequence (Q5HF71 1-1065): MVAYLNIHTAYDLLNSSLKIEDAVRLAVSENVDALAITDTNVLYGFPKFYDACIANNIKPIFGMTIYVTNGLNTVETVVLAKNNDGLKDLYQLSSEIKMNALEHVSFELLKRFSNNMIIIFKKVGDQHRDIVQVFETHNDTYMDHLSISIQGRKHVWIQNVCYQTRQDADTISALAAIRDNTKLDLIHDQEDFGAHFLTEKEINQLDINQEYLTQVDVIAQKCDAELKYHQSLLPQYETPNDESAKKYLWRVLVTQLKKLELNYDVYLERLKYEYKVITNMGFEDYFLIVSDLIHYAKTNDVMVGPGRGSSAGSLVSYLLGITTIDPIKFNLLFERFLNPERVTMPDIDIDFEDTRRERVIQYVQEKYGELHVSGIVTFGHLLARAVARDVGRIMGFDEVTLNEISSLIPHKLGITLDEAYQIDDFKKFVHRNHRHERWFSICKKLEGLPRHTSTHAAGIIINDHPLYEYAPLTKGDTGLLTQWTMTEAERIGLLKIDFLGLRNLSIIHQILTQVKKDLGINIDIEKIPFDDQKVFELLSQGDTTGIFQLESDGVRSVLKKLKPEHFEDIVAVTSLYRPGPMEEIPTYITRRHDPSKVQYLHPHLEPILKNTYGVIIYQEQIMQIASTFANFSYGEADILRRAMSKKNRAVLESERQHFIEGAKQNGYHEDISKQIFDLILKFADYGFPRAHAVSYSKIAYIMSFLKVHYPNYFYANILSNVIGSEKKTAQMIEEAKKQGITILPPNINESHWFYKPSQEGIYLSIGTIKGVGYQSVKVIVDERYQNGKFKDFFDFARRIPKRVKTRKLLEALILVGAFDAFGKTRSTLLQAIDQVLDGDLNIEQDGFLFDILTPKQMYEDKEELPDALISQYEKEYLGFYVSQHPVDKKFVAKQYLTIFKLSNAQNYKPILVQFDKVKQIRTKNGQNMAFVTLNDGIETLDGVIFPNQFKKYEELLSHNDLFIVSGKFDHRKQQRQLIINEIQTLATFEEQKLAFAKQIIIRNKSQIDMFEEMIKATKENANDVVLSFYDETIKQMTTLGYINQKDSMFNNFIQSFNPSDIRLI
Procedure: as §1, §2, §3

[3] = test system: Escherichia coli MB5747 (LS 883, tolC); test: microbe, parasite or virus in culture; type: cell-based; details: Escherichia coli, read-out: E. coli LS883 tolC (MIC), MHII broth; * = some reduction of growth versus control at […]
[4] = test system: Pseudomonas aeruginosa MB5890 (CB1101, efflux-deleted); test: microbe, parasite or virus in culture; type: cell-based; details: Pseudomonas aeruginosa, read-out: P. aeruginosa MB5890 efflux-del (MIC), MHII broth; * = some reduction of growth versus control at […]
[5] = test system: Staphylococcus aureus MB6266 (MRSA COL); test: Nargenicin antibacterial assay (MIC), S. aureus; type: cell-based; details: Staphylococcus aureus, MRSA, read-out: S. aureus COL (MIC), MHII broth + 50% human serum; * = some reduction of growth versus control at […]
[6] = test system: Streptococcus pneumoniae MB6357 (CL 2883); test: Nargenicin antibacterial assay (MIC), S. pneumoniae; type: cell-based; details: Streptococcus pneumoniae, read-out: S. pneumoniae MB2883 (MIC), Isosensitest broth; * = some reduction of growth versus control at […]
[7] = read-out: E. coli DnaE IC50 (converted)

T1 sequence (P10443 whole entry, the tested form may be a part): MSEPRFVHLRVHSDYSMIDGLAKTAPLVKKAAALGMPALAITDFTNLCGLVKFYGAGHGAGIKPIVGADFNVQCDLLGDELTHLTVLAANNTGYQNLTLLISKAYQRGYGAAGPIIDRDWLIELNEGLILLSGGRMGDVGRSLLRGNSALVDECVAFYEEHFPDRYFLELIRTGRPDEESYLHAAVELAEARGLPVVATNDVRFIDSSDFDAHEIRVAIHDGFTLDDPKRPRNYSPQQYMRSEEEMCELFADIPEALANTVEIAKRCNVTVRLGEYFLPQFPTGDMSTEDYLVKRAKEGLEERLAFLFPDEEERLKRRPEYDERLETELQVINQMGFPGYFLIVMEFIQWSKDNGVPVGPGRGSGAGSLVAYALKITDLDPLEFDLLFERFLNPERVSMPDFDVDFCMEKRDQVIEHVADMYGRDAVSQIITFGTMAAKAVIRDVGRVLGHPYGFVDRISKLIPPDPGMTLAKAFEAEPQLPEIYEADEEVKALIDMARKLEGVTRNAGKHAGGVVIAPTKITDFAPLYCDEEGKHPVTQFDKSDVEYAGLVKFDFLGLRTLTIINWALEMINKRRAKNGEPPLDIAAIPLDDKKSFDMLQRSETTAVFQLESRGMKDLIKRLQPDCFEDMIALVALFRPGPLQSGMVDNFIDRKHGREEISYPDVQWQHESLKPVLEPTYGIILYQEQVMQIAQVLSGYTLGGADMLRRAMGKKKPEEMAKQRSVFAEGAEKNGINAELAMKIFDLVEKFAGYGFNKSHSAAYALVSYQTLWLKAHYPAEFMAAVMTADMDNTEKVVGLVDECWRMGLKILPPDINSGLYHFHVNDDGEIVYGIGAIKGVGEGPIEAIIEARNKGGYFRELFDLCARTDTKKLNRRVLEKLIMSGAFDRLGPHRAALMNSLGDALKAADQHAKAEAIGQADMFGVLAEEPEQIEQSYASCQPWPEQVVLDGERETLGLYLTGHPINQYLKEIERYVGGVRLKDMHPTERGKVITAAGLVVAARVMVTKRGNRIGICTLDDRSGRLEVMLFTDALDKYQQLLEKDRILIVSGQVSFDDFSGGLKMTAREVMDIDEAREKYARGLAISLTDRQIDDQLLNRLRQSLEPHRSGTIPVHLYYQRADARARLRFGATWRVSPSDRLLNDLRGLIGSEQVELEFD

Row | SMILES | IC50 ([1]; E. coli DnaE IC50) | IC50 ([2]; S. aureus DnaE IC50) | MIC [3] | MIC [4] | MIC [5] | MIC [6] | IC50 [1, 7] | IC50 ([2]; read-out: S. aureus DnaE IC50 (converted))
1 | CO[C@H]1C[C@H]2C=C[C@H]3[C@H]4O[C@]2(/C(C)=C/[C@@H](C)[C@@H]([C@@H](C)OC(=O)NC(=O)C(Cl)(Cl)Cl)OC1=O)[C@@H]3[C@H](OC(=O)NC(=O)C(Cl)(Cl)Cl)[C@@H](C)[C@H]4OC(=O)c1ccc[nH]1 [Example 1, (3R,4S,7S,8aS,10aR,11R,12R,13R,14R,14aS,14bS,E)-7-methoxy-1,3,13-trimethyl-6-oxo-14-(((2,2,2-trichloroacetyl)carbamoyl)oxy)-4-((R)-1-(((2,2,2-trichloroacetyl)carbamoyl)oxy)ethyl)-3,4,6,7,8,8a,10a,11,12,13,14,14 a-dodecahydro-11,14b-epoxynaphtho[2,1-e]oxecin-12-yl 1H-pyrrole-2-carboxylate] | 67.2 µM | 34.7 µM | > 8 µg/mL | > 128 µg/mL | > 8 µg/mL | > 128 µg/mL | – | –
2 | CCCNC(=O)O[C@@H]1[C@@H](C)[C@@H](OC(=O)c2ccc[nH]2)[C@@H]2O[C@@]34/C(C)=C/[C@@H](C)[C@@H]([C@@H](C)OC(=O)NCCC)OC(=O)[C@@H](OC)C[C@H]3C=C[C@@H]2[C@@H]14 [Example 3] | – | > 146 µM | > 8 µg/mL | > 128 µg/mL | > 8 µg/mL | > 128 µg/mL | 30.6 µM | –
3 | CO[C@H]1C[C@H]2C=C[C@H]3[C@H]4O[C@]2(/C(C)=C/[C@@H](C)[C@@H]([C@@H](C)OC(N)=O)OC1=O)[C@@H]3[C@H](OC(N)=O)[C@@H](C)[C@H]4OC(=O)c1ccc[nH]1 [Example 4] | – | 1.16 µM | > 128 µg/mL | > 128 µg/mL | > 128 µg/mL | > 128 µg/mL | > 166 µM | –
4 | CO[C@H]1C[C@H]2C=C[C@H]3[C@H]4O[C@]2(/C(C)=C/[C@@H](C)[C@@H]([C@@H](C)OC(=O)NCCN(C)C)OC1=O)[C@@H]3[C@H](O)[C@@H](C)[C@H]4OC(=O)c1ccc[nH]1 [Example 5] | > 159 µM | – | 16 µg/mL (≈ 25.4 µM) | > 128 µg/mL | 32 µg/mL | > 128 µg/mL | – | 0.0143 µM
5 | CO[C@H]1C[C@H]2C=C[C@H]3[C@H]4O[C@]2(/C(C)=C/[C@@H](C)[C@@H]([C@@H](C)OC(=O)NC2CC2)OC1=O)[C@@H]3[C@H](O)[C@@H](C)[C@H]4OC(=O)c1ccc[nH]1 [Example 6] | – | 0.0184 µM | 4 µg/mL (≈ 6.68 µM) | > 128 µg/mL | 8 µg/mL | 128 µg/mL (≈ 214 µM) | 75.2 µM | –
6 | CO[C@H]1C[C@H]2C=C[C@H]3[C@H]4O[C@]2(/C(C)=C/[C@@H](C)[C@@H]([C@@H](C)OC(N)=O)OC1=O)[C@@H]3[C@H](O)[C@@H](C)[C@H]4OC(=O)c1ccc[nH]1 [Example 7] | – | < 0.0107 µM | 2 µg/mL (≈ 3.58 µM) | 32 µg/mL (≈ 57.3 µM) | 4 µg/mL | > 128 µg/mL | 53.7 µM | –
7 | CO[C@H]1C[C@H]2C=C[C@H]3[C@H]4O[C@]2(/C(C)=C/[C@@H](C)[C@@H]([C@@H](C)OC(=O)NCCc2ccccc2)OC1=O)[C@@H]3[C@H](O)[C@@H](C)[C@H]4OC(=O)c1ccc[nH]1 [Example 8] | – | 0.0679 µM | > 128 µg/mL | > 128 µg/mL | > 128 µg/mL | > 128 µg/mL | 45.3 µM | –
8 | CO[C@H]1C[C@H]2C=C[C@H]3[C@H]4O[C@]2(/C(C)=C/[C@@H](C)[C@@H]([C@@H](C)OC(=O)NC(C)C)OC1=O)[C@@H]3[C@H](O)[C@@H](C)[C@H]4OC(=O)c1ccc[nH]1 [Example 9] | – | 0.0333 µM | 8 µg/mL (≈ 13.3 µM) | > 128 µg/mL | 8 µg/mL | 32 µg/mL (≈ 53.3 µM) | 49.9 µM | –
9 | CO[C@H]1C[C@H]2C=C[C@H]3[C@H]4O[C@]2(/C(C)=C/[C@@H](C)[C@@H]([C@@H](C)OC(=O)NCc2ccccc2)OC1=O)[C@@H]3[C@H](O)[C@@H](C)[C@H]4OC(=O)c1ccc[nH]1 [Example 10] | – | 0.0308 µM | > 128 µg/mL | > 128 µg/mL | 8 µg/mL | > 128 µg/mL | > 154 µM | –
10 | CO[C@H]1C[C@H]2C=C[C@H]3[C@H]4O[C@]2(/C(C)=C/[C@@H](C)[C@@H]([C@@H](C)OC(=O)NCc2ccncc2)OC1=O)[C@@H]3[C@H](O)[C@@H](C)[C@H]4OC(=O)c1ccc[nH]1 [Example 11] | – | 0.0292 µM | 16 µg/mL (≈ 24.6 µM) | > 128 µg/mL | 32 µg/mL | > 128 µg/mL | 123 µM | –
11 | CO[C@H]1C[C@H]2C=C[C@H]3[C@H]4O[C@]2(/C(C)=C/[C@@H](C)[C@@H]([C@@H](C)OC(=O)NCC(=O)O)OC1=O)[C@@H]3[C@H](O)[C@@H](C)[C@H]4OC(=O)c1ccc[nH]1 [Example 12] | – | < 0.00973 µM | 32 µg/mL (≈ 51.9 µM) | > 128 µg/mL | > 128 µg/mL | > 128 µg/mL | 114 µM | –
12 | CNS(=O)(=O)CCNC(=O)O[C@H](C)[C@H]1OC(=O)[C@@H](OC)C[C@H]2C=C[C@H]3[C@H]4O[C@]2(/C(C)=C/[C@H]1C)[C@@H]3[C@H](O)[C@@H](C)[C@H]4OC(=O)c1ccc[nH]1 [Example 13] | – | < 0.00883 µM | 8 µg/mL (≈ 11.8 µM) | > 128 µg/mL | 32 µg/mL | > 128 µg/mL | > 147 µM | –
